We go through 1 compound from patent publication US5607967A, “Treatment of alzheimer's disease with 5-(tetradecyloxy)-2-furan carboxylic acid” (Merck & Co., Inc., priority 1994, dated 1997).

Entries after “also recorded” stand apart in the source; their conditions may differ.

For one series, the system named is PC12 cells. The series is described as follows: Neurite differentiation of PC12 cells. It counts as cell-based. Particulars: TOFA alone, without NGF.
The subject of series [1] is GR/NER chimeric receptor. The series is described as follows: Activation of GR/NER in COS-7 cells (luciferase). Particulars: 1440 min. As to the method:
The ligand dependent transcription assays were performed as described in Example 4. The transfected COS cells were treated with dopamine, TOFA, or with the combination of TOFA and dopamine at the indicated concentrations and tested for luciferase activity.

Series [2] relates to GR/NER chimeric receptor. The series is described as follows: Ligand dependent transcription assay, GR/NER chimeric receptor with MMTV-luciferase reporter. It counts as cell-based, human. As to the method: To search for putative ligands for the NER receptor, the chimeric receptor GR/NER was prepared. […] Chimeric receptors were prepared in which the amino terminal portion of the mouse glucocorticoid receptor (mGR) that includes the DNA binding domain was fused to the putative ligand binding domains of the nuclear receptor NER to form the respective chimeric receptor GR/NER. The cDNA sequences coding for amino acid residues Arg^155 and Glu^156 of the hNER receptor (Shinar et al., NER, a new member of a gene family encoding the steroid hormone nuclear receptor; GENE (in press) were convened to the Xho I restriction site, which site was later used for the ligation to the GR cDNA sequences that coded for the DNA binding domain. Thus, the amino acid residues Arg^155 and Glu^156 of the NER receptor were convened to amino acid residues Ser^155 and His^156.
The chimera was employed in ligand dependent transactivation assays with the reporter gene MMTV-luciferase, in which the luciferase cDNA is transcribed under the control of the MMTV promoter.
Similar hybrid receptors GR/NER, GR/NUC and GR/PPAR, in identical expression plasmid backgrounds were prepared essentially as described for the construction of the GR/mPPAR and GR/NUC chimeric receptors in Schmidt et al., "Identification of a new member of the steroid hormone receptor superfamily that is activated by a peroxisome proliferator and fatty acids," Mol. Endocrinol., 6(10):1634-41, 1992, and in Boie et al., "Enantioselective activation of the peroxisome proliferator-activated receptor", J. Biol. Chem. 268(8):5530-4, 1993.
Briefly, the amino terminal portion of the mouse glucocorticoid receptor (mGR), that includes the DNA binding domain was fused to the putative ligand binding domains of the nuclear receptor NER, hNUC-I (Schmidt et al., 1992), mPPAR (Issenmann and Green, 1990) to form the respective chimeric receptors GR/NER, GR/NUC and GR/PPAR. The GR/NER chimeric receptor was constructed as described for the GR/NUC and GR/PPAR hybrid receptors (Schmidt et al., 1992; Boie et al). The cDNA sequences coding for amino acids Arg^155 and Glu^156 of the NER receptor were converted to the Xho I restriction site, that was later used for the ligation to the GR cDNA sequences that coded for the DNA binding domain. Thus, converting amino acid residues Arg^155 and Glu^156 of NER receptor to amino acid residues Ser^155 and His^156.
Background: A reporter such as luciferase makes a cellular process visible.

Series [3] relates to MMTV-luciferase reporter gene. The series is described as follows: Luciferase expression in cells transfected only with the MMTV-luciferase reporter gene. It counts as cell-based. Particulars: no receptor transfected.
Protocol: Transient transfection of COS and CV1 cells was performed as described (Schmidt 1992). Cells were plated (1.5×10^5 in 1 mL) into 12 well dishes in phenol red-free medium supplemented with activated charcoal treated fetal calf serum. The next day 0.12 mL of DNA 10 μg/ml (5 μg receptor DNA and 5 μg reporter plasmid), as a calcium phosphate precipitate, was added to the cells. Ligands were added to the cells 30 minutes after transfection. The next day (18 hours), the cells were washed and fresh ligands added. Twenty-four hours later, cell extracts were prepared and assayed for luciferase enzyme activity using the luciferase assay system (Promega Madison, Wis.). Each transfection was performed in triplicate and the luciferase activity of each sample measured in duplicate using the AutoClinilumat (Berthold Nashua, N.H.).
For series [4], the system named is Muscarinic receptor agonist (Pilocarpine) induced catalepsy. The series is described as follows: Pilocarpine induced catalepsy (Bar method). It counts as in vivo, rat. Particulars: TOFA 0.4 mg/kg S.C. pretreatment. The method, then:
(§1) Catalepsy was determined by a modification of the Bar method (Undie and Friedman, 1988). A steel bar, 1.1 cm in diameter and 50 cm long, was suspended at a height of 10 cm above the working surface. Three sides of the bench around the bar were walled off with brown cardboard, and the linings on the bench surface were selected to be of the same color with the cardboard walls. The animal's hind limbs were freely placed on the bench, the fail laid out to the back, and the forelimbs placed over the bar. The length of time a rat stayed up on the bar was noted up to a preset cut-off point of 120 s. The time was counted off upon observing any of the following actions: (1) the animal came off, placing its two forepaws on the bench, (2) the animal climbed onto or over the bar with both hind limbs, (3) the animal initiated locomotion along or around the bar. Subsequently, time readings were translated into scores by awarding a score of 1 for each successfully completed 5 s on the bar. For each observation time, catalepsy scores were averaged for all the animals in a group to give the Mean Score of the group at that observation time. Further, the scores for each animal at all the observation times were added to give the total score for that animal. The mean of this last group of numbers was called the Mean Total Score of the group.
(§2) Catalepsy scores were analyzed by computer in accordance with the statistical procedures outlined by Winer, B. J.: Statistical principles in experimental design. McGraw-Hill, New York, pp. 10-428, 1971. Generally, for a given set of comparisons, observations were subjected to an appropriate analysis of variance followed by two-tailed Dunnett or Student's t-tests to detect differences between treatment groups.
Rats were pretreated with 0.4 mg/kg TOFA or with carrier (S.C.). Twenty-four hours later, the rats were challenged with 16 mg/kg Pilocarpine, an agonist of the muscarinic cholinergic receptor, and the duration of catalepsy was monitored as described in Example 10.

For series [5], the system named is reporter gene under the control of the promoter of SV40. The series is described as follows: Luciferase expression with reporter gene under control of the SV40 promoter. It counts as cell-based.
Series [6] deals with Dopamine D2 receptor antagonist (Haloperidol) induced catalepsy. The series is described as follows: Haloperidol induced catalepsy (Bar method). It is filed as in vivo, rat. The conditions noted are these: for Catalepsy Duration: TOFA 0.4 mg/kg S.C. pretreatment.
Series [7] deals with Dopamine D1 receptor antagonist (SCH 23390) induced catalepsy. The series is described as follows: SCH 23390 induced catalepsy (Bar method). The conditions noted are these: for Catalepsy Duration: TOFA 0.4 mg/kg S.C. pretreatment. It is filed as in vivo, rat. The method, then: Rats were pretreated with 0.4 mg/kg TOFA or with carrier (S.C.). Twenty-four hours later, the rats were challenged with 0.5 mg/kg SCH23390, a Dopamine D1 antagonist, and the duration of catalepsy was monitored.
as §1, §2

`CCCCCCCCCCCCCCOc1ccc(C(=O)O)o1` [TOFA, 5-(tetradecyloxy)-2-furan carboxylic acid]: the “Neurite outgrowth” value in the series on PC12 cells was “did not induce neurite outgrowth”. The “Fold of stimulation GR/NER” value is 3.24 ± 0.06 fold in the series with GR/NER chimeric receptor [1] (TOFA 10 μM with dopamine 100 μM); 2.85 ± 0.07 fold with GR/NER chimeric receptor [1] (TOFA 100 μM with dopamine 100 μM); 3.36 ± 0.04 fold in the series on GR/NER chimeric receptor [1] (TOFA 100 μM, no dopamine); 2.35 ± 0.09 fold in the series with GR/NER chimeric receptor [2] (2 μM); 3.66 ± 0.40 fold in the series with GR/NER chimeric receptor [2] (10 μM); 4.82 ± 0.28 fold with GR/NER chimeric receptor [2] (20 μM). The “Expression mediated by GR/NER” value in the series on GR/NER chimeric receptor [2] is “stimulated expression”. In series [3], the “Expression of luciferase, MMTV-luciferase reporter gene only” value is given as “did not stimulate the expression of luciferase”. The “Catalepsy Duration” value stood at 84.1 ± 9.6 s in series [4] (24 h later 16 mg/kg Pilocarpine); 0 s in series [4] (no challenge); 28.9 ± 4.5 s in series [6] (24 h later 0.1 mg/kg Haloperidol); 0 s in series [6] (no challenge); 75 ± 17.8 s in series [7] (24 h later 0.5 mg/kg SCH23390); 0 s in series [7] (no challenge). Moreover, the “Expression of luciferase, reporter under SV40 promoter” value in series [5] is “did not stimulate the expression of luciferase”. Further, the “Effect of TOFA pretreatment on Haloperidol-induced catalepsy” value in series [6] (TOFA 0.4 mg/kg S.C., 24 h before 0.1 mg/kg Haloperidol) is “did not significantly affect; also recorded: unaffected”. For the same compound, the “Increase of duration of SCH 23390-induced catalepsy by TOFA pretreatment” value in series [7] (TOFA 0.4 mg/kg S.C., 24 h before 0.5 mg/kg SCH23390) was “at least 25 fold”.
